Data reported in PubChem BioAssay (NCI).
Where “and” joins values, the source holds several entries; their conditions need not be identical. Equal entries are not always repeated.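 Tested at 5 concentrations; 48 h exposure; 96-well plates; endpoints linearly interpolated, else capped at highest concentration. GI50 marks 50% less growth. TGI: total growth inhibition.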 Where a SMILES comes first, the peptide text is derived from it. Bridges are numbered along the chain shown (N, C = ends). [ ]: non-standard residue; d: D form. The star is where a group is joined. ξ: configuration not given here. ξNMePhe(4-NMe2) = CNC(Cc1ccc(N(C)C)cc1)C(=O)O; Picolinoyl(3-OH) = O=C(c1ncccc1O)*; ξPip(4-oxo) = O=C1CCNC(C(=O)O)C1; Phg = N[CH](C(=O)O)c1ccccc1; Abu = CC[CH](N)C(=O)O

Legend:
Assay in all cases: NCI-60 cell line screen, 48 h
786-0 renal = test system: 786-0 renal
NCI-H460 lung = test system: NCI-H460 lung
MALME-3M melanoma = test system: MALME-3M melanoma
SK-OV-3 ovarian = test system: SK-OV-3 ovarian
SNB-19 CNS = test system: SNB-19 CNS
NCI/ADR-RES ovarian = test system: NCI/ADR-RES ovarian
HL-60(TB) leukemia = test system: HL-60(TB) leukemia
MDA-MB-231 breast = test system: MDA-MB-231 breast
RPMI-8226 leukemia = test system: RPMI-8226 leukemia
HS 578T breast = test system: HS 578T breast
UACC-62 melanoma = test system: UACC-62 melanoma
UACC-257 melanoma = test system: UACC-257 melanoma
RXF 393 renal = test system: RXF 393 renal
SK-MEL-28 melanoma = test system: SK-MEL-28 melanoma
PC-3 prostate = test system: PC-3 prostate
KM12 colon = test system: KM12 colon
SW-620 colon = test system: SW-620 colon
SK-MEL-2 melanoma = test system: SK-MEL-2 melanoma
HOP-62 NSCLC = test system: HOP-62 NSCLC
COLO 205 colon = test system: COLO 205 colon
SNB-75 CNS = test system: SNB-75 CNS
TK-10 renal = test system: TK-10 renal
M14 melanoma = test system: M14 melanoma
HCC-2998 colon = test system: HCC-2998 colon
IGROV1 ovarian = test system: IGROV1 ovarian
OVCAR-4 ovarian = test system: OVCAR-4 ovarian
HCT-15 colon = test system: HCT-15 colon
A498 renal = test system: A498 renal
U251 CNS = test system: U251 CNS
HCT-116 colon = test system: HCT-116 colon
SF-268 CNS = test system: SF-268 CNS
BT-549 breast = test system: BT-549 breast
MDA-MB-435 = test system: MDA-MB-435
MOLT-4 leukemia = test system: MOLT-4 leukemia
SF-295 CNS = test system: SF-295 CNS
HT29 colon = test system: HT29 colon
T-47D breast = test system: T-47D breast
EKVX NSCLC = test system: EKVX NSCLC
MCF7 breast = test system: MCF7 breast
LOX IMVI melanoma = test system: LOX IMVI melanoma
CAKI-1 renal = test system: CAKI-1 renal
UO-31 renal = test system: UO-31 renal
CCRF-CEM leukemia = test system: CCRF-CEM leukemia
NCI-H226 lung = test system: NCI-H226 lung
SN12C renal = test system: SN12C renal
NCI-H23 lung = test system: NCI-H23 lung
HOP-92 NSCLC = test system: HOP-92 NSCLC
OVCAR-3 ovarian = test system: OVCAR-3 ovarian
NCI-H522 lung = test system: NCI-H522 lung
K-562 leukemia = test system: K-562 leukemia
DU-145 prostate = test system: DU-145 prostate
SK-MEL-5 melanoma = test system: SK-MEL-5 melanoma
A549 NSCLC = test system: A549 NSCLC
OVCAR-8 ovarian = test system: OVCAR-8 ovarian
OVCAR-5 ovarian = test system: OVCAR-5 ovarian
ACHN renal = test system: ACHN renal
SR leukemia = test system: SR leukemia

CCOC(=O)C#Cc1c(CC(=O)OCC)nnn1[C@H]1O[C@@H](CO)[C@@H]2OC(C)(C)O[C@@H]21
GI50 (786-0 renal): 6.58 µM | TGI (786-0 renal): 19.6 µM | GI50 (NCI-H460 lung): 15 µM | TGI (NCI-H460 lung): 33.2 µM | GI50 (MALME-3M melanoma): 2 µM | TGI (MALME-3M melanoma): 4.16 µM | GI50 (SK-OV-3 ovarian): 37.3 µM | TGI (SK-OV-3 ovarian): > 100 µM | GI50 (SNB-19 CNS): 33.9 µM | TGI (SNB-19 CNS): > 100 µM | GI50 (NCI/ADR-RES ovarian): 11.5 µM | TGI (NCI/ADR-RES ovarian): 36.5 µM | GI50 (HL-60(TB) leukemia): 1.86 µM | TGI (HL-60(TB) leukemia): 5.71 µM | GI50 (MDA-MB-231 breast): 4.62 µM | TGI (MDA-MB-231 breast): 16.1 µM | GI50 (RPMI-8226 leukemia): 3.45 µM | TGI (RPMI-8226 leukemia): 9.06 µM | GI50 (HS 578T breast): 25.9 µM | TGI (HS 578T breast): 72.2 µM | GI50 (UACC-62 melanoma): 1.84 µM | TGI (UACC-62 melanoma): 4.14 µM | GI50 (UACC-257 melanoma): 4.47 µM | TGI (UACC-257 melanoma): 12.7 µM | GI50 (RXF 393 renal): 1.69 µM | TGI (RXF 393 renal): 3.32 µM | GI50 (SK-MEL-28 melanoma): 3.33 µM | TGI (SK-MEL-28 melanoma): 11.4 µM | GI50 (PC-3 prostate): 16.1 µM | TGI (PC-3 prostate): 31 µM | GI50 (KM12 colon): 16.4 µM | TGI (KM12 colon): 32.7 µM | GI50 (SW-620 colon): 1.88 µM | TGI (SW-620 colon): 3.78 µM | GI50 (SK-MEL-2 melanoma): 18.4 µM | TGI (SK-MEL-2 melanoma): 34.8 µM | GI50 (HOP-62 NSCLC): 18.2 µM | TGI (HOP-62 NSCLC): 34.2 µM | GI50 (COLO 205 colon): 2.05 µM | TGI (COLO 205 colon): 4.06 µM | GI50 (SNB-75 CNS): 10.7 µM | TGI (SNB-75 CNS): 22.9 µM | GI50 (TK-10 renal): 1.76 µM | TGI (TK-10 renal): 3.39 µM | GI50 (M14 melanoma): 3.58 µM | TGI (M14 melanoma): 12.8 µM | GI50 (HCC-2998 colon): 17.7 µM | TGI (HCC-2998 colon): 31.8 µM | GI50 (IGROV1 ovarian): 16.1 µM | TGI (IGROV1 ovarian): 36.6 µM | GI50 (OVCAR-4 ovarian): 2.11 µM | TGI (OVCAR-4 ovarian): 5.43 µM | GI50 (HCT-15 colon): 2.52 µM | TGI (HCT-15 colon): 7.02 µM | GI50 (A498 renal): 17.7 µM | TGI (A498 renal): 31.5 µM | GI50 (U251 CNS): 14 µM | TGI (U251 CNS): 27.6 µM | GI50 (HCT-116 colon): 2.06 µM | TGI (HCT-116 colon): 4.1 µM | GI50 (SF-268 CNS): 16.3 µM | TGI (SF-268 CNS): 34.6 µM | GI50 (BT-549 breast): 9.1 µM | TGI (BT-549 breast): 21.2 µM | GI50 (MDA-MB-435): 5.4 µM | TGI (MDA-MB-435): 18.3 µM | GI50 (MOLT-4 leukemia): 2.79 µM | TGI (MOLT-4 leukemia): 7.73 µM | GI50 (SF-295 CNS): 43.6 µM | TGI (SF-295 CNS): > 100 µM | GI50 (HT29 colon): 2.13 µM | TGI (HT29 colon): 4.3 µM | GI50 (T-47D breast): 2.78 µM | TGI (T-47D breast): 7.55 µM | GI50 (EKVX NSCLC): 17.3 µM | TGI (EKVX NSCLC): 35.1 µM | GI50 (MCF7 breast): 3.15 µM | TGI (MCF7 breast): 14.9 µM | GI50 (LOX IMVI melanoma): 1.35 µM | TGI (LOX IMVI melanoma): 2.97 µM | GI50 (CAKI-1 renal): 1.71 µM | TGI (CAKI-1 renal): 3.15 µM | GI50 (UO-31 renal): 2.82 µM | TGI (UO-31 renal): 10.3 µM | GI50 (CCRF-CEM leukemia): 2.04 µM | TGI (CCRF-CEM leukemia): 4.97 µM | GI50 (NCI-H226 lung): 1.79 µM | TGI (NCI-H226 lung): 3.26 µM | GI50 (SN12C renal): 3.06 µM | TGI (SN12C renal): 9.01 µM | GI50 (NCI-H23 lung): 13.6 µM | TGI (NCI-H23 lung): 30.5 µM | GI50 (HOP-92 NSCLC): 3 µM | TGI (HOP-92 NSCLC): 6.94 µM | GI50 (OVCAR-3 ovarian): 1.75 µM | TGI (OVCAR-3 ovarian): 3.22 µM | GI50 (NCI-H522 lung): 2.12 µM | TGI (NCI-H522 lung): 4.09 µM | GI50 (K-562 leukemia): 3 µM | TGI (K-562 leukemia): 11.1 µM | GI50 (DU-145 prostate): 10.2 µM | TGI (DU-145 prostate): 21.8 µM | GI50 (SK-MEL-5 melanoma): 15 µM | TGI (SK-MEL-5 melanoma): 28.4 µM | GI50 (A549 NSCLC): 23.7 µM | TGI (A549 NSCLC): 41.9 µM | GI50 (OVCAR-8 ovarian): 5.48 µM | TGI (OVCAR-8 ovarian): 18.2 µM | GI50 (OVCAR-5 ovarian): 12.1 µM | TGI (OVCAR-5 ovarian): 27.3 µM | GI50 (ACHN renal): 1.97 µM | TGI (ACHN renal): 4.11 µM

CCC1NC(=O)C(NC(=O)c2ncccc2O)C(C)OC(=O)C(c2ccccc2)NC(=O)C2CC(=O)CCN2C(=O)C(Cc2ccc(N(C)C)cc2)N(C)C(=O)C2CCCN2C1=O (stereo unspecified) (tested in a mixture with another compound) ({Picolinoyl(3-OH)}-T[Abu]P[ξNMePhe(4-NMe2)][ξPip(4-oxo)][Phg]; ester 1-C; configuration not given here)
TGI (UACC-257 melanoma): 22.3 µM | TGI (BT-549 breast): 53.2 µM | TGI (NCI-H226 lung): 42.1 µM | TGI (NCI-H23 lung): 34.5 µM | TGI (HOP-92 NSCLC): 25.5 µM

C=C(CNCCc1ccc(O)cc1)[C@@H]1CC[C@]2(COC3CCCCO3)CC[C@]3(C)[C@H](CC[C@@H]4[C@@]5(C)CCC(N)C(C)(C)[C@@H]5CC[C@]43C)[C@@H]12 (stereo partly specified)
GI50 (U251 CNS): 0.306 µM | TGI (U251 CNS): > 100 µM | GI50 (K-562 leukemia): 0.305 µM | TGI (K-562 leukemia): > 100 µM | GI50 (SR leukemia): 0.289 µM | TGI (SR leukemia): > 100 µM

Nc1ncnc2c(C3OC(CO)C(O)C3O)nsc12 (stereo unspecified)
TGI (786-0 renal): > 100 µM | TGI (NCI-H460 lung): > 100 µM | GI50 (SK-OV-3 ovarian): 3.25 µM | TGI (SK-OV-3 ovarian): 20.3 µM | TGI (SNB-19 CNS): > 100 µM | GI50 (HL-60(TB) leukemia): 1.52 µM | TGI (HL-60(TB) leukemia): 7.5 µM | GI50 (PC-3 prostate): 4.6 µM | TGI (SW-620 colon): > 100 µM | TGI (M14 melanoma): > 75 µM | TGI (A498 renal): 1.41 µM | TGI (U251 CNS): > 100 µM | TGI (SF-268 CNS): > 100 µM | TGI (HT29 colon): > 100 µM | GI50 (T-47D breast): < 0.0162 µM | TGI (T-47D breast): > 48.6 µM | TGI (MCF7 breast): > 100 µM | TGI (CCRF-CEM leukemia): 16.5 µM and > 100 µM
